From PMC7822874, “Chemoprotective antimalarials identified through quantitative high-throughput screening of Plasmodium blood and liver stage parasites” (Scientific Reports, 2021)

System: Plasmodium falciparum Dd2 asexual blood stage parasites
Test: microbe, parasite or virus in culture
Design: species or system Plasmodium falciparum Dd2 in human erythrocytes; single determination (one 11-point concentration-response curve)
Conditions: Plasmodium falciparum, DD2, Erythrocyte, 72 h; read-out: AC50

Work on `Cc1ccnc2nc(C(=O)Nc3cc(Cl)ccc3N3CCOCC3)nn12` [MLS000567033-01] yielded an AC50 of 4.73 µM.

For `C=CCOC(=O)Nc1nc2c(s1)C[C@@H]1[C@](C)(CO)[C@H](O)CC[C@@]1(C)[C@@H]2CC(=O)NC1CCCCC1` [NCGC00395650-01], the AC50 was 3.76 µM.

`CCOc1ccccc1C(=O)N1CCN(C(=O)c2nnn3c2COC(c2ccccc2)C3)CC1` (centres unmarked) [NCGC00449179-01] gave an AC50 of 16.8 µM.

Molecule `COc1ccc(NC(=O)c2ccc(-c3nnc4ccc(NC(=O)C5CCC5)cn34)cc2)cc1` [NCGC00429884-01] has an AC50 of 4.22 µM.

`O=C1CC2(CCN(Cc3cccs3)CC2)Oc2cc(Cl)ccc21` [NCGC00476854-01] gave an AC50 of 5.31 µM.

`Cc1ccccc1CN1C(=O)CN=C(c2ccccc2)c2cc(Cl)ccc21` [NCGC00140581-01] gave an AC50 of 16.8 µM.

`Cc1cc(Nc2cccc(Cl)c2)nc(NCc2ccccc2)n1` [MLS000591844-01] gave an AC50 of 8.41 µM.

In the case of `Cc1cc(N(C)Cc2ccccc2)nc2cc(O)ccc12` [MLS001199318-01], the AC50 is reported as 2.37 µM.

In the case of `CCN(C(=O)Cn1c(=O)n(Cc2ccc3c(c2)OCO3)c(=O)c2ccc(C(=O)NC3CCCCC3)cc21)c1cccc(C)c1` [NCGC00108796-01], the AC50 is reported as 6.68 µM.

For `O=C1N=C(NC2CCCC2)C2(CCN(CC3CC3)C2)N1c1cc(F)cc(F)c1` (centres unmarked) [NCGC00374289-01], the AC50 was 1.5 µM.

`COc1ccccc1N1CCN(C(=O)c2ccc3c(c2)N(Cc2cc(C)ccc2C)C(=O)c2ccccc2[S+]3(=O)[O-])CC1` [NCGC00109735-01] was tested, and the AC50 was 9.44 µM.

Work on `CCn1ccc2ccc(CN3CCCC(O)(CN4CCCC4)C3)cc21` (centres unmarked) [NCGC00441341-01] yielded an AC50 of 7.5 µM.

`COc1ccc(/C=C\c2onc(C)c2[S+](=O)([O-])N2CCC(C(=O)Nc3ccc(C)cc3C)CC2)cc1` [NCGC00109197-01] was tested, and the AC50 was 0.841 µM.

`COc1ccc2cc1Nc1ccc(cc1)C[C@H](NC(=O)c1cccnc1)C(=O)N(C)[C@@H](C(=O)NCCOc1ccccc1)C2` [NCGC00410281-01] showed an AC50 of 4.22 µM.

`Cn1nc(C2CCCCC2)cc1[C@H]1CN2CC[C@H]1C[C@@H]2CNC(=O)c1cccs1` [NCGC00399662-01] gave an AC50 of 13.7 µM.

`COc1cc2nc(SCc3ccc(F)cc3)n3nc(CCn4c(C)nc5ccccc54)nc3c2cc1OC` [NCGC00108638-01] was tested, and the AC50 was 2.99 µM.

`CCOc1nc(N=C(N)N)nc2c(C)cccc12` [MLS000570610-01] showed an AC50 of 10.6 µM.

With `CN1CCN(c2ccc(NC(=O)c3ccc(-c4cccc([N+](=O)[O-])c4)o3)cc2)CC1` [MLS000663772-01] the AC50 was 4.73 µM.

In the case of `COc1ccc2cc1Nc1ccc(cc1)C[C@H](NCc1ccc3c(c1)CCO3)C(=O)N(C)[C@H](C(=O)NCCC(C)C)C2` [NCGC00410296-01], the AC50 is reported as 3.35 µM.

`Oc1ccc(Br)cc1CN1CCN(c2ccccc2)CC1` [MLS000106609-01] gave an AC50 of 2.11 µM.

In the case of `COc1ccc(-c2n[nH]c3ncc(-c4ccc([S+](C)(=O)[O-])cc4)nc23)c(C)c1` [NCGC00419180-01], the AC50 is reported as 15.3 µM.

Molecule `Cc1ccccc1-c1nccn2c(C3CN(Cc4ccccc4O)C3)ncc12` [NCGC00414046-01] has an AC50 of 5.44 µM.

Molecule `O=C1N=C(NC2CCCCC2)C2(CCN(Cc3ccc(F)cc3)C2)N1c1cc(F)cc(F)c1` (centres unmarked) [NCGC00374193-01] has an AC50 of 4.22 µM.

With `CCn1cc(CN2CCCC23CCN(c2cc(C)nc4ccccc24)CC3)c(C)n1` [NCGC00442249-01] the AC50 was 4.22 µM.

With `Cc1cnc(CC2CCCN([S+](=O)([O-])c3ccccc3)C2)n1CC1CC1` (centres unmarked) [NCGC00469674-01] the AC50 was 6.68 µM.

With `OCc1ccc(CN2CCCC(CCc3c(F)cccc3F)C2)o1` (centres unmarked) [NCGC00426759-01] the AC50 was 4.22 µM.

`CC1(c2ccccc2)N(Cc2ccccc2)C(=O)OC12CCN(Cc1cccnc1)CC2` (centres unmarked) [NCGC00415410-01] gave an AC50 of 15.3 µM.

`Cc1nc(-c2ccccc2)n(CC(=O)Nc2ccc(Cl)cc2)c(=O)c1CCO` [NCGC00470932-01] gave an AC50 of 16.8 µM.

`O=C(C[C@@H]1NCCC[C@H]1O)Cn1cnc2cc(Br)c(Cl)cc2c1=O` [NCGC00181132-01] showed an AC50 of 2.37 µM.

With `Clc1ccc(CN2CCOC[C@H](Oc3ccccc3)C2)cc1` [NCGC00393521-01] the AC50 was 17.2 µM.

For `COc1ccc2cc1Nc1ccc(cc1)C[C@H](NC(=O)Cc1cccc(Cl)c1)C(=O)N(C)[C@H](C(=O)NCCOc1ccccc1)C2` [NCGC00410283-01], the AC50 was 7.5 µM.

`CCc1nc(NC(=O)C2c3ccccc3C(=O)N(CCOC)C23CCCC3)sc1C` (centres unmarked) [NCGC00423528-01] gave an AC50 of 5.96 µM.

Work on `COc1ccc(CNC[C@H]2O[C@H](Cc3cc(-c4ccccc4)on3)CC[C@@H]2O)cc1` [NCGC00401044-01] yielded an AC50 of 3.85 µM.

For `CCOC(=O)N1CCC(NC(=O)c2ccc3c(c2)N(Cc2ccccc2)C(=O)c2ccccc2[S+]3[O-])CC1` (centres unmarked) [NCGC00109348-01], the AC50 was 13.3 µM.

`CC1=C[C@@H](CNCCN(C)C)[C@H](C(C)C)C[C@H]1Cc1nnc(C(C)(C)C)o1` [NCGC00401821-01] showed an AC50 of 15.3 µM.

In the case of `Cc1ccc(CN2COc3ccc4c(-c5ccccc5)cc(=O)oc4c3C2)cc1` [NCGC00116312-01], the AC50 is reported as 0.841 µM.

`CC(C)CCN1CCn2c(nn(-c3ccc([N+](=O)[O-])cc3)c2=O)C1` [NCGC00479600-01] was tested, and the AC50 was 17.2 µM.

Molecule `CCOC(=O)c1c(C)oc2nc(C)nc(Nc3ccc(CC)cc3)c12` [NCGC00126813-01] has an AC50 of 7.5 µM.
